Test system: adults with moderate-to-severe chronic pain associated with osteoarthritis (OA) of the knee or hip
Experiment: FACT OA1 (NCT03161093, R475-OA-1611) Phase 3 trial, WOMAC pain and physical function
Format: in vivo, human
Details: FACT OA1, Week 16; fasinumab 1 mg Q4W, naproxen 2 × 500 mg/day
Source text: NCT02683239 (R475-PN-1523, or “FACT LTS”), NCT03161093 (R475-OA-1611, or “FACT OA1”), and NCT03304379 (R475-OA-1688, or “FACT OA2”) each were Phase 3 trials evaluating fasinumab in adults with moderate-to-severe chronic pain associated with osteoarthritis (OA) of the knee or hip. All three of these trials enrolled patients with OA of the knee or hip who had inadequate pain relief with acetaminophen and were intolerant to or had inadequate pain relief with opioids, or were unwilling or unable to take opioids. Complete inclusion and exclusion criteria for the trials are described at clinicaltrials.gov/ct2/show/NCT03161093, clinicaltrials.gov/ct2/show/NCT03304379, and clinicaltrials.gov/ct2/show/NCT02683239.
FACT OA1 and FACT OA2 assessed the efficacy of fasinumab in comparison to nonsteroidal anti-inflammatory drugs (NSAIDs; naproxen, diclofenac, or celecoxib) for treatment of OA. FACT OA1 includes results from a total of 1,801 patients randomized to one of four treatment arms: fasinumab 1 mg SC once every 8 weeks (Q8W) (n=304), fasinumab 1 mg SC once every 4 weeks (Q4W) (n=639), naproxen 500 mg twice daily (n=644), or placebo (n=214). In FACT OA2, patients were randomized into one of six treatment groups: fasinumab 1 mg SC once every 4 weeks (Q4W), fasinumab 3 mg SC once every 4 weeks (Q4W), fasinumab 6 mg SC once every 8 weeks (Q8W), celecoxib 200 mg once daily, diclofenac 75 mg twice daily, or placebo. While the FACT OA2 trial was still ongoing, enrollment into the fasinumab 3 mg Q4W and 6 mg Q8W groups was stopped for safety considerations; patients enrolled in those dose regimens discontinued study drug and entered the post-treatment follow-up period.
Fasinumab patients in both trials also reported improvements in their pain and physical function (WOMAC score) compared to those treated with the highest-approved prescription doses of NSAIDS.

Q: Which “WOMAC pain, change from baseline” value does the source give for `COc1ccc2cc([C@H](C)C(=O)O)ccc2c1` [Naproxen, naproxen, reference compound] here?
A: Its value is −33%.

Q: What about the “WOMAC pain, change from baseline (score, in brackets)” value of the same compound?
A: The value was “(−2.13)”.

Q: What about the “WOMAC physical function, change from baseline” value of the same compound?
A: Its value is −31%.

Q: And the “WOMAC physical function, change from baseline (score, in brackets)” value?
A: Its value is “(−1.98)”.

Reference: US20240002491A1, “METHODS FOR SELECTING PATIENTS FOR TREATMENT WITH AN NGF ANTAGONIST” (Regeneron Pharmaceuticals, Inc., priority 2022, published 2024)
